Tests used:
microsomal 11β-HSD1 = microsomal 11β-HSD1 (Homo sapiens, UniProt P28845); experiment: Inhibition of microsomal 11β-HSD1, Scintillation Proximity Assay; type: biochemical; details: microsomal enzyme, same manner as purified enzyme assay
Method: (§1) The inhibition of purified 11β-HSD1 by compounds of Formula I was measured as follows using a Scintillation Proximity Assay. All reactions were carried out at room temperature in 96 well flexible Microbeta reaction plates. The assay begins by adding 1 microliter of a 0.1 mM solution of a compound of Formula I in DMSO previously diluted in half-log increments (8 points) starting at 1 micromolar final concentration. To this dot was added 50 microliters of substrate solution (50 mM HEPES, pH 7.4, 100 mM KCl, 5 mM NaCl, 2 mM MgCl2 containing […] of ^3H cortisone, 1 mM NADPH). After a 10 minute incubation, 50 microliters of enzyme solution containing 20 nM recombinant 11β-HSD1 (expressed in E. coli, and affinity purified) was added, The reaction was incubated for 90 minutes, and stopped by adding 50 microliters of SPA bead mix (18-β-glycyrrhetinic acid, 10 micromolar final, 5 mg/ml protein A coated YSi SPA beads, and 1-microgram/ml alpha-cortisol antibody (East Coast Biologics). The plate shaken for 120 minutes, and the radioactivity corresponding to ^3H cortisol was measured on a Wallac Microbeta.
The inhibition of microsomal 11β-HSD1 was carried out in the same manner.

[1] = target: T1, 11β-HSD1 in whole cells (omental adipocytes) (Homo sapiens, UniProt P28845); experiment: Inhibition of 11β-HSD1 in whole cells (omental adipocytes), cortisone to cortisol conversion, SPA; type: cell-based; details: 100 nM [3H] cortisone, 37 degrees C
T1 construct: host or cells: omental adipocytes differentiated from preadipocytes
T1 sequence (P28845 whole entry): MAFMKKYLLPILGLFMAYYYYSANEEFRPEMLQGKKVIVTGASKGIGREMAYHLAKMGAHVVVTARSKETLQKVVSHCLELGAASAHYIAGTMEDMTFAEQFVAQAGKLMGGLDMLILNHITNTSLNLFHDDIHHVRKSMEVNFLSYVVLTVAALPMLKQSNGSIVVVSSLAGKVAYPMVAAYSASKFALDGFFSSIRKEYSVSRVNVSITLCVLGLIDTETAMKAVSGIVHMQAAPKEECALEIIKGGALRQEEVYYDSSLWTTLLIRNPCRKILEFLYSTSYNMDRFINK
Method: The inhibition of 11β-HSD1 by compounds of Formula I in whole cells was measured as follows. Omental adipocytes cultured in 96-well plates were purchased from Zen-Bio, Inc. and used at least two weeks after differentiation from precursor preadipocytes started in medium supplemented with adipogenic and lipogenic hormones (human insulin, dexamethasone, isobutylmethylxanthine and PPAR-gamma agonist). The cells were maintained in full adipocyte medium (DMEM/Ham's F-12 (1:1, v/v), HEPES pH 7.4, fetal bovine serum, penicillin, streptomycin and Amphotericin B, supplied by Zen-Bio, Inc.) at 37 degrees C., 5% CO2 and transferred into serum-free, phenol red free medium for overnight incubation. The assay was performed in a total volume of 200 microliters. The cells were pre-incubated with serum-free, phenol red free medium containing 0.1% (v/v) of DMSO and various concentrations of compounds of Formula I at least 1 h before [^3H] cortisone in ethanol (50 Ci/mmol, ARC, Inc.) was added to achieve final concentration of cortisone of 100 nM. The cells were incubated for 3-4 at 37 degrees Centigrade, 5% CO2. Negative controls were incubated without radioactive substrate and received the same amount of [^3H] cortisone at the end of the incubation. Formation of [^3H] cortisol was monitored by analyzing 25 microliters of each supernatant in scintillation proximity assay (SPA). (Solly, K.; Mundt, S. S.; Zokian, H. J.; Ding, G. J.; Hermanowski-Vosatka, A.; Strulovici, B.; Zheng, W. Assay Drug Dev. Technol. 2005, 3, 377-384),

[2] = target: T2, purified 11β-HSD1 (recombinant, expressed in E. coli) (Homo sapiens, UniProt P28845); experiment: Inhibition of purified 11β-HSD1, Scintillation Proximity Assay; type: biochemical; details: recombinant enzyme, 3H cortisone, NADPH, room temperature
T2 construct: made in house; host or cells: E. coli
T2 sequence (P28845 whole entry): as above
Method: as §1

Chain of microsomal 11β-HSD1 (P28845 whole entry): as above

| SMILES | IC50 (microsomal 11β-HSD1) [µM] | IC50 [1] [µM] | IC50 [2] [µM] |
| --- | --- | --- | --- |
| O=C1OC(c2ccc(Br)cc2)CN1C1C2CC3CC(C2)CC1C3 (racemic) [Example 29, (±)-5-(4-bromophenyl)-3-(2-adamantyl)oxazolidin-2-one] | < 0.05 | – | – |
| O=C1OC(c2cccc(Br)c2)CN1C1C2CC3CC(C2)CC1C3 (racemic) [Example 34, (±)-5-(3-bromophenyl)-3-(2-adamantyl)oxazolidin-2-one] | < 0.05 | – | – |
| CC(C)CC1(CO)CN(C2C3CC4CC(C3)CC2C4)C(=O)N1 (racemic) [Example 35, (±)-1-(2-adamantyl)-4-(hydroxymethyl)-4-isobutylimidazolidin-2-one] | < 0.05 | – | – |
| CC(C)CC1(CO)CN(CC23CC4CC(CC(C4)C2)C3)C(=O)N1 (racemic) [Example 36, (±)-1-(1-adamantylmethyl)-4-(hydroxymethyl)-4-isobutylimidazolidin-2-one] | 0.05 to 1 | – | – |
| O=C1OC(c2cccc(-c3ccccc3)c2)CN1C1C2CC3CC(C2)CC1C3 (racemic) [Example 37, (±)-5-(biphenyl-3-yl)-3-(2-adamantyl)oxazolidin-2-one] | < 0.05 | 0.05 to 1 | – |
| O=C1OC(c2ccc(-c3ccccc3)cc2)CN1C1C2CC3CC(C2)CC1C3 (racemic) [Example 38, (±)-5-(biphenyl-4-yl)-3-(2-adamantyl)oxazolidin-2-one] | < 0.05 | – | – |
| O=C1O[C@@H](c2ccccc2)CN1CC12CC3CC(CC(C3)C1)C2 [Example 1, (S)-3-((1-adamantyl)methyl)-5-phenyloxazolidin-2-one] | – | 0.05 to 1 | < 0.05 |
| CC(C)C[C@H]1CN(CC23CC4CC(CC(C4)C2)C3)C(=O)O1 [Example 2, (S)-3-((1-adamantyl)methyl)-5-isobutyloxazolidin-2-one] | – | 0.05 to 1 | < 0.05 |
| O=C1O[C@@H](c2ccccc2Cl)CN1CC12CC3CC(CC(C3)C1)C2 [Example 7, (S)-3-((1-adamantyl)methyl)-5-(2-chlorophenyl)oxazolidin-2-one] | – | 0.05 to 1 | < 0.05 |
| O=C1O[C@@H](C2CCCCC2)CN1CC12CC3CC(CC(C3)C1)C2 [Example 18, (S)-3-((1-adamantyl)methyl)-5-cyclohexyloxazolidin-2-one] | – | 0.05 to 1 | < 0.05 |
| CC(C)(C)[C@H]1CN(C2C3CC4CC(C3)CC2C4)C(=O)N1 (stereo partly drawn) [Example 27, (S)-1-(2-adamantyl)-4-tert-butylimidazolidin-2-one] | – | < 0.05 | < 0.05 |
| CN1C(=O)N(C2C3CC4CC(C3)CC2C4)C[C@@H]1C(C)(C)C (stereo partly drawn) [Example 28, (S)-1-(2-adamantyl)-4-tert-butyl-3-methylimidazolidin-2-one] | < 0.05 | < 0.05 | < 0.05 |
| O=C1N[C@@H](c2ccccc2)CN1C12CC3CC(CC(C3)C1)C2 [Example 30, (S)-1-(1-adamantyl)-4-phenylimidazolidin-2-one] | < 0.05 | 0.05 to 1 | – |
| O=C1N[C@@H](C2CCCCC2)CN1C1C2CC3CC(C2)CC1C3 (stereo partly drawn) [Example 32, (S)-4-cyclohexyl-1-(2-adamantyl)imidazolidin-2-one] | < 0.05 | < 0.05 | – |
| CC(C)[C@H]1CN(C2C3CC4CC(C3)CC2C4)C(=O)N1 (stereo partly drawn) [Example 33, (S)-4-isopropyl-1-(2-adamantyl)imidazolidin-2-one] | < 0.05 | < 0.05 | – |

Now from value to compound:

| IC50 (microsomal 11β-HSD1) [µM] | IC50 [1] [µM] | IC50 [2] [µM] | SMILES |
| --- | --- | --- | --- |
| < 0.05 | < 0.05 | – | CC(C)(C)C1CCN(C2C3CC4CC(C3)CC2C4)C(=O)N1 (racemic) [Example 31, (±)-4-tert-butyl-1-(2-adamantyl)tetrahydropyrimidin-2(1H)-one] |
| – | < 0.05 | < 0.05 | CC(C)C[C@H]1CN(C23CC4CC(CC(C4)C2)C3)C(=O)O1 [Example 4, (S)-3-(1-adamantyl)-5-isobutyloxazolidin-2-one] |
| – | < 0.05 | < 0.05 | CC(C)C[C@H]1CN(C2C3CC4CC(C3)CC2C4)C(=O)O1 (stereo partly drawn) [Example 5, (S)-3-(2-adamantyl)-5-isobutyloxazolidin-2-one] |
| – | < 0.05 | < 0.05 | CC(C)(C)[C@H]1CN(CC23CC4CC(CC(C4)C2)C3)C(=O)O1 [Example 8, (S)-3-((1-adamantyl)methyl)-5-(t-butyl)oxazolidin-2-one] |
| < 0.05 | < 0.05 | < 0.05 | CC(C)(C)[C@H]1CN(C2C3CC4CC(C3)CC2C4)C(=O)O1 (stereo partly drawn) [Example 12, (S)-3-(2-adamantyl)-5-tert-butyloxazolidin-2-one] |
| – | < 0.05 | < 0.05 | C[C@]1(c2ccccc2)CN(C2C3CC4CC(C3)CC2C4)C(=O)O1 (stereo partly drawn) [Example 16, (S)-3-(2-adamantyl)-5-methyl-5-phenyloxazolidin-2-one] |
| – | < 0.05 | < 0.05 | O=C1O[C@@H](C2CCCCC2)CN1C1C2CC3CC(C2)CC1C3 (stereo partly drawn) [Example 20, (S)-3-(2-adamantyl)-5-cyclohexyloxazolidin-2-one] |
| – | < 0.05 | < 0.05 | O=C1O[C@H](C2CCCCC2)CN1C1C2CC3CC(C2)CC1C3 (stereo partly drawn) [Example 21, (R)-3-(2-adamantyl)-5-cyclohexyloxazolidin-2-one] |
| – | < 0.05 | < 0.05 | C[C@@H]1[C@H](c2ccccc2)OC(=O)N1CC12CC3CC(CC(C3)C1)C2 [Example 25, (4R,5S)-3-((1-adamantyl)methyl)-4-methyl-5-phenyloxazolidin-2-one] |
